Test results published in patent US20090104246A1 (priority 2004, published 2009).

Key:
[1] = system: human smooth muscle cells; test: Cladribine Example, PDGF-stimulated cell proliferation (cell count), smooth muscle cells; type: cell-based; details: from the IC50 values
Experimental: To assess the ability of cladribine to prevent cell proliferation, human smooth muscle or endothelial cells (Clonetics, Walkersville, Md.) were seeded at a density of 2000 cells/cm^2 (approximately 3600 cells/well) into each well of 12-well plates and cultured with 1.5 ml of growth medium containing five percent fetal calf serum (FCS). After twenty-four hours, the growth medium was changed and fresh medium containing 10 ng/ml platelet-derived growth factor AB (PDGF AB; LIFE Technologies), as well as various concentrations of cladribine (0.001-10,000 nM) were added with triplicate wells. Medium was replaced with fresh cladribine-containing medium after three days. On day six, cells were detached by trypsinization to yield a cell suspension, lightly centrifuged to pellet and then counted manually using a Neubauer hemocytometer system. Cell viability was assessed by trypan blue exclusion.

[2] = system: human coronary artery smooth muscle cells; test: Anti-proliferative activity in non-synchronized cultured human coronary artery smooth muscle cells stimulated with two percent fetal bovine serum; type: cell-based; details: for effect on the anti-proliferative rapamycin dose response curve: agent added to rapamycin-treated non-synchronized cells, mycophenolic acid zero to one thousand nanomolar, cladribine zero to nine hundred nanomolar
Text: The multiple curves represent various concentrations of mycophenolic acid ranging from zero to one thousand nanomolar concentrations.
FIG. 58 illustrates, in graphical format, the anti-proliferative activity of cladribine in non-synchronized cultured human coronary artery smooth muscle cells stimulated with two percent fetal bovine serum.
The multiple curves represent various concentrations of cladribine ranging from zero to nine hundred nanomolar concentrations.

[3] = In vivo release kinetics from rapamycin/cladribine EVA/BMA coating on Bx Velocity stents, Yorkshire pigs; parameters: species or system porcine; details: 600 microgram basecoat, 200 microgram BMA topcoat
Text: (§1) The basecoat is applied to Bx Velocity® stents and implanted into Yorkshire pigs.
as §1

cell viability = test: Cell viability assay; type: cell-based
Text: (§2) The multiple curves represent various concentrations of topotecan ranging from zero to three hundred nanomolar concentrations.
(§3) The multiple curves represent various concentrations of etoposide ranging from zero to eight hundred nanomolar concentrations.

[4] = system: human coronary artery smooth muscle cells; test: Anti-proliferative activity in synchronized cultured human coronary artery smooth muscle cells stimulated with two percent fetal bovine serum; type: cell-based; details: for effect on the anti-proliferative rapamycin dose response curve: agent added to rapamycin-treated synchronized cells, topotecan to 300 nanomolar, etoposide to eight hundred nanomolar, Panzem to 100 micromolar
Text: as §2, §3
The multiple curves represent various concentrations of Panzem® ranging from zero to 100 micromolar concentrations.

[5] = system: human coronary artery smooth muscle cell survival; details: 6.6 nanomolar to 30,000.00 nanomolar
Text: In vitro cytotoxicity tests or assays may be utilized to determine if drugs, agents and/or compounds are potentially toxic and the level of toxicity. Essentially, in vitro cytotoxicity assays determine acute necrotic effects by a drug causing direct cellular damage. The idea behind these assays is that toxic chemicals affect basic functions of cells which are common to all cells. […] There are a number of different assays that may be utilized. In the present invention, the cytotoxicity assay utilized is based upon the measurement of cellular metabolic activity. A reduction in metabolic activity is an indication of cellular damage. Tests that can measure metabolic function measure cellular ATP levels or mitochondrial activity via MTS metabolism. FIG. 69 is a graphical representation of the results of an MTS assay of Panzem®.

[6] = Liquid formulations of sirolimus with PEG 200, ethanol and water; concentrations by liquid chromatography; type: physicochemical; details: 4 mg/ml formulation with PEG 200, ethanol and water
Text: In accordance with exemplary embodiments of the present invention, a series of liquid formulations were developed for the local or regional delivery of water insoluble compounds such as sirolimus and its analogs, including CCl-779, ABT-578 and everolimus, through weeping balloons and catheter injection needles. […] These liquid formulations increase the apparent solubility of the pharmacologically active but water insoluble compounds by two to four orders of magnitude as compared to the solubility limits of the compounds in water. These liquid formulations rely on the use of a very small amount of organic solvents such as Ethanol (typically less than two percent) and a larger amount of safe amphiphilic (of or relating to a molecule having a polar, water soluble group attached to a non-polar, water insoluble […]) excipients such as polyethylene glycol (PEG 200, PEG 400) and vitamin E TPGS to enhance the solubility of the compounds. These liquid formulations of highly water insoluble compounds are stable and readily flowable at room temperature. Certain excipients, such as Vitamin E TPGS and BHT may be utilized to enhance the storage stability of sirolimus compounds through their anti-oxidation properties. […]

[7] = In vivo release kinetics from rapamycin/mycophenolic acid EVA/BMA coating, porcine pharmacokinetics studies; details: 180 micrograms each of rapamycin and mycophenolic acid in 600 microgram basecoat, with or without BMA topcoat
[8] = system: human coronary artery smooth muscle cell proliferation; test: In vitro cell culture study of coronary artery smooth muscle cell proliferation; type: cell-based
Text: FIG. 51 is a graph of the inhibition of coronary artery smooth muscle cells by trichostatin A in a cell culture study.

tumor cell lines = details: cited from earlier work

With Nc1nc(Cl)nc2c1ncn2[C@H]1C[C@H](O)[C@@H](CO)O1 [Cladribine, 2-chlorodeoxyadenosine] the “potency on smooth muscle cells relative to endothelial cells” value [1] was “approximately twice as potent”, the “effect on the anti-proliferative rapamycin dose response curve” value (“effect” for short) [2] was “potentiate the anti-proliferative activity of rapamycin” and the “inhibition of human coronary artery smooth muscle cell proliferation” value ([2]; non-synchronized cells, two percent fetal bovine serum) was “completely inhibits”. For the same compound, the “in vivo elution from EVA/BMA basecoat compared with rapamycin” value [3] was “elutes more rapidly than rapamycin”.
In the case of COc1cc([C@@H]2c3cc4c(cc3[C@@H](O[C@@H]3O[C@@H]5CO[C@@H](C)O[C@H]5[C@H](O)[C@H]3O)[C@H]3COC(=O)[C@H]23)OCO4)cc(OC)c1O [Etoposide, etoposide], the “cytotoxicity in cell viability assay” value (cell viability; concentrations up to ten micromolar) is reported as “non-cytotoxic” and the “effect” value [4] is reported as “potentiate the anti-proliferative activity of rapamycin”.
For COc1cc2c(cc1O)CC[C@@H]1[C@@H]2CC[C@]2(C)[C@@H](O)CC[C@@H]12 [Panzem®, 2-methoxyestradiol], the “cytotoxicity (MTS assay)” value [5] was “do not reduce human coronary artery smooth muscle cell survival”, the “effect” value [4] was “increases the percent of inhibition of rapamycin alone” and the anti-proliferative activity alone ([4]; synchronized cells, two percent fetal bovine serum) was “extremely effective inhibitor”.
With CO[C@H]1C[C@@H]2CC[C@@H](C)[C@@](O)(O2)C(=O)C(=O)N2CCCC[C@H]2C(=O)O[C@H]([C@H](C)C[C@@H]2CC[C@@H](O)[C@H](OC)C2)CC(=O)[C@H](C)/C=C(\C)[C@@H](O)[C@@H](OC)C(=O)[C@H](C)C[C@H](C)/C=C/C=C/C=C/1C [Rapamycin, rapamycin] the “concentration relative to the solubility of sirolimus in water” value [6] was “about four hundred to about one thousand times higher”.
With CC[C@@]1(O)C(=O)OCc2c1cc1n(c2=O)Cc2cc3c(CN(C)C)c(O)ccc3nc2-1 [Topotecan, topotecan] the “cytotoxicity in cell viability assay” value (cell viability; concentrations up to one micromolar) was “non-cytotoxic” and the “effect” value [4] was “potentiate the anti-proliferative activity of rapamycin”.
For COc1c(C)c2c(c(O)c1C/C=C(\C)CCC(=O)O)C(=O)OC2 [mycophenolic acid], the “effect” value [2] was “potentiates the anti-proliferative activity of rapamycin” and the “in vivo elution from EVA/BMA basecoat compared with rapamycin” value [7] was “elutes more completely over a shorter duration than the rapamycin”.
In the case of CC(/C=C/C(=O)NO)=C\[C@@H](C)C(=O)c1ccc(N(C)C)cc1 [trichostatin A], the IC50 ([8]; human coronary artery smooth muscle cells, read-out: anti-proliferative IC50) is listed as ~6 nM, the “inhibition of human coronary artery smooth muscle cell proliferation” value ([8]; in vitro cell culture) is listed as “completely inhibit” and the “anti-proliferative IC50” value (tumor cell lines) is listed as “low nM range”.
